Assays:
Type in all cases: in vivo
Plutella xylostella = experiment: Diamond back moth (Plutella xylostella) cabbage leaf dip test; settings: foliar, 72 h, read-out: mortality in comparison with untreated controls
Protocol: The active compound was dissolved at the desired concentration in a mixture of 1:1 (vol:vol) distilled water:aceteone. Surfactant (Kinetic HV) was added at a rate of 0.01% (vol/vol). The test solution was prepared at the day of use.
Leaves of cabbage were dipped in test solution and air-dried. Treated leaves were placed in petri dishes lined with moist filter paper and inoculated with ten 3rd instar larvae. Mortality was recorded 72 hours after treatment. Feeding damages were also recorded using a scale of 0-100%.

Myzus persicae = experiment: Green peach aphid (Myzus persicae) systemic artificial diet test; settings: 72 h, read-out: mortality in comparison with untreated controls
Excerpt: For evaluating control of green peach aphid (Myzus persicae) through systemic means the test unit consisted of 96-well-microtiter plates containing liquid artificial diet under an artificial mem brane.
The compounds were formulated using a solution containing 75% v/v water and 25% v/v DMSO. Different concentrations of formulated compounds were pipetted into the aphid diet, using a custom built pipetter, at two replications.
After application, 5-8 adult aphids were placed on the artificial membrane inside the microtiter plate wells. The aphids were then allowed to suck on the treated aphid diet and incubated at about 23±1° C. and about 50±5% relative humidity for 3 days. Aphid mortality and fecundity was then visually assessed.

Megoura viciae = experiment: Vetch aphid (Megoura viciae) leaf disk test; settings: foliar, 120 h, read-out: mortality in comparison with untreated controls
Protocol: For evaluating control of vetch aphid (Megoura viciae) through contact or systemic means the test unit consisted of 24-well-microtiter plates containing broad bean leaf disks.
The compounds were formulated using a solution containing 75% v/v water and 25% v/v DMSO. Different concentrations of formulated compounds were sprayed onto the leaf disks at 2.5 μl, using a custom built micro atomizer, at two replications.
After application, the leaf disks were air-dried and 5-8 adult aphids placed on the leaf disks inside the microtiter plate wells. The aphids were then allowed to suck on the treated leaf disks and incubated at about 23±1° C. and about 50±5% relative humidity for 5 days. Aphid mortality and fecundity was then visually assessed.

Heliothis virescens = experiment: Tobacco budworm (Heliothis virescens) insect diet test; settings: 120 h, read-out: mortality in comparison with untreated controls
Protocol: For evaluating control of tobacco budworm (Heliothis virescens) the test unit consisted of 96-well-microtiter plates containing an insect diet and 15-25 H. virescens eggs.
The compounds were formulated using a solution containing 75% v/v water and 25% v/v DMSO. Different concentrations of formulated compounds were sprayed onto the insect diet at 10 μl, using a custom built micro atomizer, at two replications.
After application, microtiter plates were incubated at about 28±1° C. and about 80±5% relative humidity for 5 days. Egg and larval mortality was then visually assessed.

Anthonomus grandis = experiment: Boll weevil (Anthonomus grandis) insect diet test; settings: 120 h, read-out: mortality in comparison with untreated controls
Protocol: For evaluating control of boll weevil (Anthonomus grandis) the test unit consisted of 96-well-microtiter plates containing an insect diet and 5-10 A. grandis eggs.
The compounds were formulated using a solution containing 75% v/v water and 25% v/v DMSO. Different concentrations of formulated compounds were sprayed onto the insect diet at 5 μl, using a custom built micro atomizer, at two replications.
After application, microtiter plates were incubated at about 25±1° C. and about 75±5% relative humidity for 5 days. Egg and larval mortality was then visually assessed.

Dichromothrips corbetti = experiment: Orchid thrips (Dichromothrips corbetti) floral-immersion test; settings: 72 h, read-out: mortality in comparison with untreated controls
Protocol: Dichromothrips corbetti adults used for bioassay were obtained from a colony maintained continuously under laboratory conditions. For testing purposes, the test compound is diluted in a 1:1 mixture of acetone:water (vol:vol), plus Kinetic HV at a rate of 0.01% v/v.
Thrips potency of each compound was evaluated by using a floral-immersion technique. All petals of individual, intact orchid flowers were dipped into treatment solution and allowed to dry in Petri dishes. Treated petals were placed into individual re-sealable plastic along with about 20 adult thrips. All test arenas were held under continuous light and a temperature of about 28° C. for duration of the assay. After 3 days, the numbers of live thrips were counted on each petal. The percent mortality was recorded 72 hours after treatment.

Nephotettix virescens = experiment: Rice green leafhopper (Nephotettix virescens) rice seedling spray test; settings: 72 h, read-out: mortality in comparison with untreated controls
Protocol: Rice seedlings were cleaned and washed 24 hours before spraying. The active compounds were formulated in 1:1 acetone:water (vol:vol), and 0.01% vol/vol surfactant (Kinetic HV) was added. Potted rice seedlings were sprayed with 5-6 ml test solution, air dried, covered with Mylar cages and inoculated with 10 adults. Treated rice plants were kept at about 28-29° C. and relative humidity of about 50-60%. Percent mortality was recorded after 72 hours.

Tetranychus kanzawai = experiment: Red spider mite (Tetranychus kanzawai) cowpea bean spray test; settings: 72 h, read-out: mortality in comparison with untreated controls
Protocol: The active compound was dissolved at the desired concentration in a mixture of 1:1 (vol:vol) distilled water:acetone. Add surfactant (Kinetic HV) was added at a rate of 0.01% (vol/vol). The test solution was prepared at the day of use.
Potted cowpea beans of 4-5 days of age were cleaned with tap water and sprayed with 1-2 ml of the test solution using air driven hand atomizer. The treated plants were allowed to air dry and afterwards inoculated with 30 or more mites by clipping a cassava leaf section from rearing population. Treated plants were placed inside a holding room at about 25-27° C. and about 50-60% relative humidity. Percent mortality was assessed 72 hours after treatment.

Spodoptera eridania = experiment: Southern armyworm (Spodoptera eridania) lima bean foliar spray test; settings: 96 h, read-out: mortality in comparison with untreated controls
Protocol: The active compounds were formulated in cyclohexanone as a 10,000 ppm solution supplied in tubes. The tubes were inserted into an automated electrostatic sprayer equipped with an atomizing nozzle and they served as stock solutions for which lower dilutions were made in 50% acetone:50% water (v/v). A nonionic surfactant (Kinetic®) was included in the solution at a volume of 0.01% (v/v).
Lima bean plants (variety Sieva) were grown 2 plants to a pot and selected for treatment at the 1st true leaf stage. Test solutions were sprayed onto the foliage by an automated electrostatic plant sprayer equipped with an atomizing spray nozzle. The plants were dried in the sprayer fume hood and then removed from the sprayer. Each pot was placed into perforated plastic bags with a zip closure. About 10 to 11 armyworm larvae were placed into the bag and the bags zipped closed. Test plants were maintained in a growth room at about 25° C. and about 20-40% relative humidity for 4 days, avoiding direct exposure to fluorescent light (24 hour photoperiod) to prevent trapping of heat inside the bags. Mortality and reduced feeding were assessed 4 days after treatment, compared to untreated control plants.

Nezara viridula = experiment: Green soldier stink bug (Nezara viridula) soybean pod spray test; settings: 120 h, read-out: mortality in comparison with untreated controls
Protocol: The active compound was dissolved at the desired concentration in a mixture of 1:1 (vol:vol) distilled water:acetone. Surfactant (Kinetic HV) was added at a rate of 0.01% (vol/vol). The test solution was prepared at the day of use. Soybean pods were placed in glass Petri dishes lined with moist filter paper and inoculated with ten late 3rd instar N. viridula. Using a hand atomizer, approximately 2 ml solution is sprayed into each Petri dish. Assay arenas were kept at about 25° C. Percent mortality was recorded after 5 days.

Euschistus heros = experiment: Neotropical brown stink bug (Euschistus heros) soybean pod spray test; settings: 120 h, read-out: mortality in comparison with untreated controls
Protocol: (§1) The active compound was dissolved at the desired concentration in a mixture of 1:1 (vol:vol) distilled water:acetone. Surfactant (Kinetic HV) was added at a rate of 0.01% (vol/vol). The test solution was prepared at the day of use.
Soybean pods were placed in microwavable plastic cups and inoculated with ten adult stage E. heros. Using a hand atomizer, approximately 1 ml solution is sprayed into each cup, insects and food present. A water source was provided (cotton wick with water). Each treatment was replicated 2-fold. Assay arenas were kept at about 25° C. Percent mortality was recorded after 5 days.

Halyomorpha halys = experiment: Brown marmorated stink bug (Halyomorpha halys) spray test; settings: in Glycine max, 120 h, read-out: mortality in comparison with untreated controls
Protocol: as §1
Row peanuts and soybean seeds were placed into microwavable plastic cups and inoculated with five adult stage H. halys. Using a hand atomizer, approximately 1 ml solution is sprayed into each cup, insects and food present. A water source was provided (cotton wick with water).
Each treatment is replicated 4-fold. Assay arenas are kept at about 25° C. Percent mortality was recorded after 5 days.

CN1C(=O)CC[C@@H](NC(=O)c2ccc(C3=NOC(c4cc(Cl)c(F)c(Cl)c4)(C(F)(F)F)C3)cc2Cl)C1=O (stereo partly drawn) [Compound 1-1, 2-chloro-4[5-(3,5-dichloro-4-fluoro-phenyl)-5-(trifluoromethyl)-4H-isoxazol-3-yl]-N-[(3R)-1-methyl-2,6-dioxo-3-piperidyl]benzamide]
> 75%: mortality at 300 ppm (Plutella xylostella) | mortality at 2500 ppm (Myzus persicae) | mortality at 2500 ppm (Megoura viciae) | mortality at 2500 ppm (Heliothis virescens) | mortality at 2500 ppm (Anthonomus grandis) | mortality at 300 ppm (Dichromothrips corbetti) | mortality at 300 ppm (Nephotettix virescens) | mortality at 300 ppm (Tetranychus kanzawai) | mortality at 10 ppm (Spodoptera eridania) | mortality at 300 ppm (Nezara viridula) | mortality at 500 ppm (Euschistus heros) | mortality at 100 ppm (Halyomorpha halys)

Cc1cc(C2=NOC(c3cc(Cl)cc(Cl)c3)(C(F)(F)F)C2)ccc1C(=O)N[C@@H]1CCC(=O)N(CC(F)F)C1=O (stereo partly drawn) [Compound 1-18, 4-[5-(3,5-dichlorophenyl)-5-(trifluoromethyl)-4H-isoxazol-3-yl]-N-[(3R)-1-(2,2-difluoroethyl)-2,6-dioxo-3-piperidyl]-2-methyl-benzamide]
> 75%: mortality at 300 ppm (Plutella xylostella) | mortality at 2500 ppm (Myzus persicae) | mortality at 2500 ppm (Megoura viciae) | mortality at 2500 ppm (Heliothis virescens) | mortality at 2500 ppm (Anthonomus grandis) | mortality at 300 ppm (Dichromothrips corbetti) | mortality at 300 ppm (Nephotettix virescens) | mortality at 300 ppm (Tetranychus kanzawai) | mortality at 300 ppm (Nezara viridula) | mortality at 500 ppm (Euschistus heros) | mortality at 100 ppm (Halyomorpha halys)

From patent US20210309649A1, “SUBSTITUTED GLUTARIMIDE DERIVATIVES” (BASF SE, priority 2018, published 2021)
